{"source": "patent US20100047373A9", "about": "“Method for Extracting Plants of the Genus Pelargonium, Extract Produced According to Said Method, and Use Thereof” (EMSPHARM GMBH, priority 2005, published 2010)", "test_system": "EMC virus/L929 (IFN) test model", "test": "Cytoprotective effect / IFN values in the EMC virus/L929 (IFN) test model", "format": "cell-based, murine", "conditions": "determined from 8 standard curves", "method": "Determining the Cytoprotective Effect by Obtaining the Values for IFN in the EMC Virus/L929 (IFN) Test Model\nL929 (IFN) cells (batch no. 5577) were cultured, trypsinized, washed and counted in 100-mL culture dishes. The suspension was adjusted to 2×10^5 cells/mL and sown in microtitre plates with 2×10^4 cells/well, which were incubated over night at 37° C., 5% CO2. After that, the supernatant was replaced by 100 μL each medium control, cell control, virus control with rMuIFN-γ control, rMuIFN-γ standard (100 U/mL) and test solution, all of which were diluted lineally.\nThe samples were incubated for exactly eight hours at 37° C., 5% CO2. After the end of the incubation time, 100 μL each of the vital suspension used were pipetted into the vital and interferon controls and into the test solutions and again incubated over night at 37° C., 5% CO2.\nAfter 22 hours, fully developed viral activity appeared (cell lysis must be distinctly pronounced in the vital control), so that the lysis was interrupted. The supernatants were discarded via the wash basin 100 μl of a 0.5% crystal violet solution were pipetted into each well. […] The absorption of the crystal violet staining was determined on the ELISA reader at 550 nm. […] The ED50 value of the rMuIFN-γ standard was at 1,076 U/mL (determined from 8 standard curves).", "data": [{"substance": "rMuIFN-γ standard: rMuIFN-γ standard (100 U/mL) used in the EMC virus/L929 (IFN) test", "values": [{"measurement": "ED50 value of the rMuIFN-γ standard", "value": "1,076 U/mL"}]}]}
